Experimental data from patent publication US9877961B2, “Anticoagulant reversal agents” (PEROSPHERE INC., priority 2011, dated 2018).
“Also recorded” adds a separate entry of the source.

Key:
[1] = Water solubility of DAP; type: physicochemical
Method: In one embodiment, wherein the pharmaceutical composition comprises the DAP compound of formula V (or its stereoisomer of formula VII) and the composition is adapted for parenteral administration in an injection, the compound is dissolved in water with appropriate tonicity and molality modifiers (such as phosphate buffered saline). DAP is water-soluble at greater than 100 mg/ml. In the one embodiment, DAP is adapted as a sterile solution for IV administration. In one aspect, the molality of the pharmaceutical composition in which DAP is adapted for IV administration is adjusted to 290 mOsm/L with sodium chloride, and the pH is adjusted to 7.4 with sodium hydroxide. Preferably the pharmaceutical composition is administered as an intravenous bolus by slow push.

[2] = DLS association of DAP with fondaparinux; type: binding
Method: Rivaroxaban (XARELTO®) alone, DAP alone, and DAP:rivaroxaban combinations at mass ratios of 1:1 and 10:1 were added into an aqueous solution and analyzed by dynamic light scattering (DLS) to assess association of the DAP and rivaroxaban. A similar experiment was conducted on apixaban (ELIQUIS®) alone, DAP alone, and DAP:apixaban combinations at mass ratios of 1:1, 10:1 and 100:1. Fondaparinux (ARIXTRA®) alone, DAP alone, and fondaparinux:DAP combinations at mass ratios of 1:1, 10:1 and 100:1 were similarly tested. LMWH (bemiparin; HIBOR®), alone, DAP alone, and LMWH:DAP combinations at mass ratios of 1:1, 10:1, and 100:1 were also tested. The concentration of LMWH tested was 0.1 mg/ml. Therefore, at 1:1, 0.1 mg/ml DAP was tested, at 10:1, 1 mg/ml was tested, and at 100:1, 10 mg/ml DAP was tested.

[3] = system: dabigatran (PRADAXA®) anticoagulation; test: DAP reversal of dabigatran (PRADAXA®) anticoagulation in vivo, aPTT; set-up: species or system rat
Excerpt: The activated partial thromboplastin time (aPTT) assay is an assay that measures how long it takes for the blood to clot. Blood samples are collected for direct measurement or in tubes with oxalate and citrate to arrest coagulation by calcium until the assay can be performed. In the assay, a phospholipid, an activator (silica, celite, kaolin, ellagic acid, etc.), and calcium are mixed into the plasma to induce coagulation. The assay measures the time until a thrombus (clot) forms.
A male albino rat, weighing 430 g, was administered 40 mg/kg of PRADAXA® (20 mg PRADAXA®; overdose of PRADAXA®) by oral gavage.
Approximately 2 hours into PRADAXA® treatment, 200 mg/kg DAP (100 mg DAP) was administered as an intravenous bolus injection. Approximately 2 hours later, the rat was administered a dose of 100 mg/kg of DAP (50 mg DAP). In another hour, the rat was administered another dose of 100 mg/kg of DAP (50 mg DAP). aPTT was measured throughout the course of the entire treatment.

[4] = system: apixaban (ELIQUIS®) anticoagulation; test: Rat tail transection bleeding assay, apixaban; type: in vivo; settings: for blood loss (blood collected over 30 minutes): p<0.01 vs apixaban only
Method: (§1) Rat tail bleeding assay or rat tail transection assay is an assay that measures blood loss, e.g., blood loss after drug administration. In one embodiment, where the effect of the compound of the invention (e.g., DAP) is being tested, at the Tmax of the anticoagulant, DAP is administered intravenously. After 20 minutes, rat tails are transected approximately 1 mm from the tip, placed in room temperature saline, and blood is collected for 30 minutes and weighed.
(§2) Three rats each were administered 2 mg of rivaroxaban. One rat received a sham reversal containing no DAP, the second received 2.5 mg of DAP, and the third received 12.5 mg DAP. A fourth fat received sham anticoagulant and reversal doses (“sham”). 20 minutes after the reversal dose, tails were transected 1 mm from the tip, placed in room temperature saline, and blood loss was collected for 30 minutes and then weighed.
Same procedures were used with 1.25 mg apixaban (ELIQUIS®) alone or in combination with 5 or 12.5 mg DAP; with 15.5 mg dabigatran etexilate (PRADAXA®) alone or in combination with 5 or 12.5 mg DAP; and with 5 mg edoxaban (LIXIANA®) alone or in combination with 12.5 mg DAP.

[5] = system: edoxaban (LIXIANA®) anticoagulation; test: Rat tail transection bleeding assay, edoxaban; type: in vivo
Method: as §1, §2
Same procedures were used with 1.25 mg apixaban (ELIQUIS®) alone or in combination with 5 or 12.5 mg DAP; with 15.5 mg dabigatran etexilate (PRADAXA®) alone or in combination with 5 or 12.5 mg DAP; […]

[6] = Oral bioavailability of DAP in rats; type: in vivo, rat
[7] = molecular target: human ERG (Homo sapiens, UniProt Q12809); test: Human ERG binding; settings: data not shown
[8] = system: dabigatran (PRADAXA®) anticoagulation; test: DAP reversal of dabigatran (PRADAXA®) anticoagulation in vivo, aPTT; set-up: species or system rat; settings: 15.5 mg/kg PRADAXA®, 100 mg/kg DAP (FIG. 13)
[9] = rat tail transection, 30 minutes

human ERG, sequence (Q12809 whole entry): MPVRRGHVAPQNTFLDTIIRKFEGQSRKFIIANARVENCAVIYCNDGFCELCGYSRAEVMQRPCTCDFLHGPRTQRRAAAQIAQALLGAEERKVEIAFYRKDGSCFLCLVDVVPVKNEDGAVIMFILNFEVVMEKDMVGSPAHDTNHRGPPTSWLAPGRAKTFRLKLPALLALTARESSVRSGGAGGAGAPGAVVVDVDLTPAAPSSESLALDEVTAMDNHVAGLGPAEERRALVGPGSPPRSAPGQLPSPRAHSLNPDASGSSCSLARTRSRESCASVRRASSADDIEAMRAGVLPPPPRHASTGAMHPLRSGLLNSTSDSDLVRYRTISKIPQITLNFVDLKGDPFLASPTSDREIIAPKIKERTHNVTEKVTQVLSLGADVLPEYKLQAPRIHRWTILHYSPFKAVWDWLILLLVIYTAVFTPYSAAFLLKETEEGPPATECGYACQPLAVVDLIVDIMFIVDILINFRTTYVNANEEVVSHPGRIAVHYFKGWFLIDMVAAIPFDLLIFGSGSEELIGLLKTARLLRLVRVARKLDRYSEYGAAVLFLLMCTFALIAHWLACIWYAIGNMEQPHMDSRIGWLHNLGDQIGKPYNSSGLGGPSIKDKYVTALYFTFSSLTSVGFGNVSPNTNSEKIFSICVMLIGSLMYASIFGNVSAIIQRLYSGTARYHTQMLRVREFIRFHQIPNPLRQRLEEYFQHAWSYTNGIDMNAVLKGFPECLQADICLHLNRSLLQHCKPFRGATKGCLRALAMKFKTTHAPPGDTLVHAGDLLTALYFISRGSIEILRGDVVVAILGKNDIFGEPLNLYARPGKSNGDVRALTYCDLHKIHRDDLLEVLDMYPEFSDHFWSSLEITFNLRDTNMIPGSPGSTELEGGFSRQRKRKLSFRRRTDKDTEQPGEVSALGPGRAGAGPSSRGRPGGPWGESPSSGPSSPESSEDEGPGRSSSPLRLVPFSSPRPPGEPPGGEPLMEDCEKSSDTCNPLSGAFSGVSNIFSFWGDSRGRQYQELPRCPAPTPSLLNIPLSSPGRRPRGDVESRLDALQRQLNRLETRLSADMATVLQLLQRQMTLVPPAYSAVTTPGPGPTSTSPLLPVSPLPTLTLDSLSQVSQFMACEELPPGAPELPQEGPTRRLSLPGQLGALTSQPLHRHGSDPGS

For `N=C(N)NCCC[C@H](N)C(=O)NCCCN1CCN(CCCNC(=O)[C@@H](N)CCCNC(=N)N)CC1` (stereo in doubt) [DAP, 2-Amino-5-guanidino-pentanoic acid (3-{4-[3-(2-amino-5-guanidino-pentanoylamino)-propyl]-piperazin-1-yl}-propyl)-amide], the solubility [1] was over 100 mg/mL, the “binding by DLS” value [2] was “directly bound” and the “aPTT risen back after first DAP dose” value ([3]; 2 hours after 100 mg DAP) was 79 s. The “aPTT risen after second DAP dose” value ([3]; after 50 mg DAP) was 53 s, the “time until aPTT returned above baseline following DAP administration” value ([3]; both times (first and second DAP dose)) was at most 60 min and the “time until aPTT below baseline after DAP” value ([3]; first dose, 100 mg DAP (200 mg/kg) i.v. bolus) was at most 25 min. The elimination half-life ([3]; inferred from return of anti-coagulation in rats) was “short elimination half-life”, the “time until PRADAXA®-induced anti-coagulation returned after DAP” value ([3]; intravenous bolus dose of DAP in rats) was 20 to 30 min and the “reversal of oral dabigatran anticoagulation in vivo” value ([3]; rats, aPTT) was “reversed”. For the same compound, the “time until aPTT below baseline after DAP” value ([3]; second dose, 50 mg DAP (100 mg/kg)) was at most 30 min, the “time until aPTT dropped to baseline after DAP” value ([3]; third dose, 100 mg/kg (50 mg) DAP i.v.) was at most 20 min and the “blood loss (blood collected over 30 minutes)” value ([4]; 1.25 mg apixaban and 5 mg DAP) was “reduced blood loss to sham dose levels”. The “blood loss (blood collected over 30 minutes)” value ([4]; 1.25 mg apixaban and 12.5 mg DAP) was “reduced blood loss to sham dose levels”, the “reversal of apixaban, blood loss vs anticoagulant only” value [4, 9] was “reversed; also recorded: statistically significant reduction in blood loss” and the “blood loss (blood collected over 30 minutes)” value ([5]; 1.25 mg edoxaban and 12.5 mg DAP, p<0.05 vs edoxaban only) was “reduced blood loss to sham dose levels”. For the same compound, the “reversal of edoxaban, blood loss vs anticoagulant only” value [5, 9] was “reversed; also recorded: statistically significant reduction in blood loss”, the oral bioavailability [6] was “orally bioavailable” and the “human ERG binding” value [7] was “no human ERG binding”. The “time until aPTT returned to normal after DAP” value [8] was at most 30 min.
